Source: patent publication US11130780B2, “Inhibitors of growth factor activation enzymes” (Washington University, priority 2015, dated 2021)
Read-outs that look alike come from different tables or passages of the source. Starred links: 1 amine or outer side, 2 acyl side, 3 side chain; linkers in the order of their positions; H or OH if unused. Non-standard residues stand in square brackets, D forms with d. Residues, ends and D or L forms follow the SMILES beside them. X1 = N=C(N)NCCC[C@H](N[*:1])C(=O)c1nc2ccc(C(=O)[*:2])cc2s1

Columns and labels:
Type in all cases: biochemical
[1] = target: T1, HGFA (Homo sapiens, UniProt Q04756); experiment: Fluorescent kinetic enzyme inhibitor assay of HGFA; conditions: read-out: HGFA Ki
T1 construct: His6 tag (N); seven amino acid spacer and seven amino acid TEV cleavage site (N); Honey Bee melittin signal peptide (N); made in house; host or cells: High 5 insect cells (baculovirus; virus raised in Sf9)
T1 sequence (Q04756 373-655): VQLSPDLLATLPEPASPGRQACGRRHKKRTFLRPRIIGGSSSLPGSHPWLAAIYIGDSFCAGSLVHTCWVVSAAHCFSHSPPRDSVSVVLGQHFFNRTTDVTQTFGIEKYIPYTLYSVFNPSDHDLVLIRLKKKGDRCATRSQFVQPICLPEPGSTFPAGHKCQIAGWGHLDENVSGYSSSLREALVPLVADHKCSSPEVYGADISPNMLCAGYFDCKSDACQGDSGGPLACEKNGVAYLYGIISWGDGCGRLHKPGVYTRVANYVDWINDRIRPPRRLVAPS
In short: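 Recombinant His-tagged HGFA residues 373-655 from insect cells, with substrate at Km. Inhibitors in 11-point dilutions, 0-20 μM final, 2% DMSO, fluorescence (ex 380/em 460 nm) followed over time at room temperature. IC50 from four-parameter fit of mean velocity, average of three experiments.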

[2] = target: T2, matriptase (Homo sapiens, UniProt Q9Y5Y6); experiment: Fluorescent kinetic enzyme inhibitor assay of matriptase
T2 construct: Charles Craik, UCSF (obtained from another laboratory)
T2 sequence (Q9Y5Y6 615-855 limits assumed): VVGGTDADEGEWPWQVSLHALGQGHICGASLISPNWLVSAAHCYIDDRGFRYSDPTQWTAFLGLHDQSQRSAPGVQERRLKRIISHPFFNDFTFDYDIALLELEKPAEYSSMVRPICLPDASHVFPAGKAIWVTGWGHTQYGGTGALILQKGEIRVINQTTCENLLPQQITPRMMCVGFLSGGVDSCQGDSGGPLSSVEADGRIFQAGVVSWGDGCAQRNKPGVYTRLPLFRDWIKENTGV
In short: (§1)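 Fluorescence (ex 380/em 460 nm) followed kinetically at room temperature; IC50 from four-parameter fit of mean velocity versus concentration, averaged over three experiments.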

[3] = target: T3, hepsin (Homo sapiens, UniProt P05981); experiment: Fluorescent kinetic enzyme inhibitor assay of hepsin
T3 construct: purchased R&D Systems 4776-SE-010
T3 sequence (P05981 163-417 limits assumed): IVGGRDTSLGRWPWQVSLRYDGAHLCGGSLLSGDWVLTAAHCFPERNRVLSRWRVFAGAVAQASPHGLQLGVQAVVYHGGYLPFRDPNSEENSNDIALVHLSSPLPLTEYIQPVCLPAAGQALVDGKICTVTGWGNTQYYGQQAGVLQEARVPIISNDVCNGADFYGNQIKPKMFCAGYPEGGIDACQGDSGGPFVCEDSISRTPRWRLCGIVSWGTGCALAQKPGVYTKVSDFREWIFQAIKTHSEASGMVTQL
T3 sequence (P05981 45-162 partner limits assumed): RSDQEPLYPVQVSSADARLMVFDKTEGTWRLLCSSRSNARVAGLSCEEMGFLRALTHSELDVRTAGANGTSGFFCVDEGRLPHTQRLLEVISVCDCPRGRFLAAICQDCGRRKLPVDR
In short: as §1

[4] = target: thrombin (Homo sapiens, UniProt P00734); experiment: Chromogenic kinetic enzyme assay of thrombin
Description: (§2) Inhibitors (11-pt serial dilutions, 0-20 μM final concentration) were serially diluted in DMSO (2% DMSO final concentration) and then mixed with recombinant thrombin (0.15 nM final concentration) or Factor Xa (0.35 nM final concentration) in TNC buffer (25 mM Tris, 150 mM NaCl, 5 mM CaCl2, 0.01% TRITON X-100, pH 8) using clear 384 well plates. […] Changes in absorbance at 405 nm were measured over time in a Biotek Synergy 2 plate (Winnoski, Vt.). Using GraphPad Prism version 6.04 software program, (GraphPad Software, San Diego, Calif., www.graphpad.com), a four parameter curve fit was used to determine the inhibitor IC50s from a plot of the mean reaction velocity versus the inhibitor concentration. Ki values were calculated from the IC50 values using the Cheng and Prusoff equation (Ki=IC50/(1+[S]/Km).

[5] = target: Factor Xa (Homo sapiens, UniProt P00742); experiment: Chromogenic kinetic enzyme assay of Factor Xa
Chain of Factor Xa (P00742 235-488 limits assumed): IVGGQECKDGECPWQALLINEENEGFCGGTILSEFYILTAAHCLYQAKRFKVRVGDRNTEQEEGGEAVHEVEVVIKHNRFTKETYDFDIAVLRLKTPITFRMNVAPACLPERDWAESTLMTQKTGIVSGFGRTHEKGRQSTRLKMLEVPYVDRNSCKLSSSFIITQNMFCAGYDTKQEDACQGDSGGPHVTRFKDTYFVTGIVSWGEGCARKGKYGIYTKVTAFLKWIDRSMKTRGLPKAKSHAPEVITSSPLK
Chain of Factor Xa (P00742 41-179 partner limits assumed): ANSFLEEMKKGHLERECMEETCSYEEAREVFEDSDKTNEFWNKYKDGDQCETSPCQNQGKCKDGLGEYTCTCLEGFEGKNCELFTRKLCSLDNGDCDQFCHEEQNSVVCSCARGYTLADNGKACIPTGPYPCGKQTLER
Description: as §2

[6] = Table 6.2, headed Fluorogenic Assay, read-out: Thrombin Ki
[7] = Table 6.2, headed Fluorogenic Assay, read-out: Factor Xa Ki
[8] = Table 6.1, Fluorogenic Assay, read-out: Hepsin Ki

Compound	Ki ([1]; Table 6.1, Fluorogenic Assay)	Ki [4, 6]	Ki [5, 7]	other results
CC(=O)N[C@@H](CCCCN)C(=O)N[C@@H](CCC(N)=O)C(=O)N[C@@H](CC(C)C)C(=O)N[C@@H](CCCNC(=N)N)C(=O)c1nc2ccc(C(=O)N[C@H](C(N)=O)C(C)C)cc2s1 [Compound 7055, Ac-KQLR(SEQ ID NO: 1)-Kbt-Val—NH2] (Ac-KQL[X1]V-NH2)	12 nM	3210 nM	66 nM	Ki [1]: 13 nM; Ki [2]: 7 nM; Ki ([3]; read-out: hepsin Ki): 0.3 nM
CC(=O)N[C@@H](Cc1c[nH]c2ccccc12)C(=O)N[C@@H](CC(C)C)C(=O)N[C@@H](Cc1ccccc1)C(=O)N[C@@H](CCCNC(=N)N)C(=O)c1nc2ccccc2s1 [Compound 7064, Ac-WLFR(SEQ ID NO: 20)-Kbt]	133 nM	> 20000 nM	1 nM	
CC(=O)N[C@@H](CCCCN)C(=O)N[C@@H](CCCNC(=N)N)C(=O)N[C@@H](CC(C)C)C(=O)N[C@@H](CCCNC(=N)N)C(=O)c1nc2ccc(C(=O)N[C@H](C(N)=O)C(C)C)cc2s1 [Compound 7115, Ac-KRLR(SEQ ID NO: 8)-Kbt-Val—NH2] (Ac-KRL[X1]V-NH2)	5.83 nM	1560 nM	17 nM	Ki ([2]; Table 6.1, Fluorogenic Assay): 7.41 nM
CC(=O)N[C@@H](CO)C(=O)N[C@@H](CCCCN)C(=O)N[C@@H](CC(C)C)C(=O)N[C@@H](CCCNC(=N)N)C(=O)c1nc2ccc(C(=O)N[C@H](C(N)=O)C(C)C)cc2s1 [Compound 7116, Ac-SKLR(SEQ ID NO: 10)-Kbt-Val— NH2] (Ac-SKL[X1]V-NH2)	13 nM			Ki [3, 8]: 0.19 nM; Ki [4]: 4500 nM; Ki [5]: 385 nM
CC(=O)N[C@@H](CO)C(=O)N[C@@H](CCCCN)C(=O)N[C@@H](CC(C)C)C(=O)N[C@@H](CCCNC(=N)N)C(=O)c1nc2ccc(C(=O)O)cc2s1 [Compound 7118, Ac-SKLR(SEQ ID NO: 10)-Kbt-COOH]	132 nM	> 2000 nM	1250 nM	
CC(=O)N[C@@H](CO)C(=O)N[C@@H](CCCCN)C(=O)N[C@@H](CC(C)C)C(=O)N[C@@H](CCCNC(=N)N)C(=O)c1nc2ccc(C(=O)N[C@@H](Cc3c[nH]c4ccccc34)C(N)=O)cc2s1 [Compound 7124, Ac-SKLR(SEQ ID NO: 10)-Kbt-Trp— NH2] (Ac-SKL[X1]W-NH2)	15.8 nM	1230 nM	163 nM	
CC(=O)N[C@@H](CO)C(=O)N[C@@H](CCCCN)C(=O)N[C@@H](CC(C)C)C(=O)N[C@@H](CCCNC(=N)N)C(=O)c1nc2ccc(C(=O)N[C@@H](Cc3ccccc3)C(N)=O)cc2s1 [Compound 7125, Ac-SKLR(SEQ ID NO: 10)-Kbt-Phe— NH2] (Ac-SKL[X1]F-NH2)	17.3 nM	3640 nM	544 nM	Ki [3, 8]: 0.14 nM
CC(=O)N[C@@H](CO)C(=O)N[C@@H](CCCCN)C(=O)N[C@@H](CC(C)C)C(=O)N[C@@H](CCCNC(=N)N)C(=O)c1nc2ccc(C(=O)Nc3ccncc3)cc2s1 [Compound 7126, Ac-SKLR(SEQ ID NO: 10)-Kbt-4-pyridinylamide]	31.8 nM	3430 nM	221 nM	Ki [3, 8]: 0.14 nM
CC(=O)N[C@@H](CO)C(=O)N[C@@H](CCCCN)C(=O)N[C@@H](CC(C)C)C(=O)N[C@@H](CCCNC(=N)N)C(=O)c1nc2ccc(C(=O)NCc3ccccc3)cc2s1 [Compound 7139, Ac-SKLR(SEQ ID NO: 10)-Kbt- benzylamide]	9.1 nM	2470 nM	190 nM	
CC(=O)N[C@@H](CO)C(=O)N[C@@H](CCCCN)C(=O)N[C@@H](CC(C)C)C(=O)N[C@@H](CCCNC(=N)N)C(=O)c1nc2ccc(C(=O)NC3CCNCC3)cc2s1 [Compound 7140, Ac-SKLR(SEQ ID NO: 10)-Kbt-4-piperidinylamide]	7.7 nM	2950 nM	447 nM	
CC(=O)N[C@@H](CCCCN)C(=O)N[C@@H](CCCNC(=N)N)C(=O)N[C@@H](CC(C)C)C(=O)N[C@@H](CCCNC(=N)N)C(=O)c1nc2ccc(C(=O)NCc3cccc(C(=O)O)c3)cc2s1 [Compound 7165, Ac-KRLR(SEQ ID NO: 8)-Kbt-5-COOH]	6.07 nM	1940 nM	20.2 nM	
CC(C)C[C@H](NC(=O)[C@@H](N)Cc1c[nH]c2ccccc12)C(=O)N[C@@H](CCCNC(=N)N)C(=O)c1nc2ccccc2s1 [Compound 7170, H-WLR-kbt]	104 nM	457 nM	532 nM	
CC(C)C[C@H](NC(=O)[C@@H](N)CCCNC(=N)N)C(=O)N[C@@H](CCCNC(=N)N)C(=O)c1nc2ccccc2s1 [Compound 7171, H-RLR-kbt]	83.1 nM	8200 nM	56 nM	
CC(C)C[C@H](NC(=O)[C@@H](N)CCCNC(=N)N)C(=O)N[C@@H](CCCNC(=N)N)C(=O)c1nc2ccc(C(=O)N[C@H](C(N)=O)C(C)C)cc2s1 [Compound 7180, H-RLR-kbt V amide]	12.5 nM	548 nM	18 nM	
CC(C)C[C@H](NC(=O)[C@@H](N)Cc1c[nH]c2ccccc12)C(=O)N[C@@H](CCCNC(=N)N)C(=O)c1nc2ccc(C(=O)N[C@H](C(N)=O)C(C)C)cc2s1 [Compound 7181, H-WLR-kbt V amide]	73.9 nM	41 nM	159 nM	
CC(C)C[C@H](NC(=O)[C@@H](N)CC(C)C)C(=O)N[C@@H](CCCNC(=N)N)C(=O)c1nc2ccc(C(=O)N[C@H](C(N)=O)C(C)C)cc2s1 [Compound 7182, H-LLR-kbt V amide]	82.1 nM	101 nM	159 nM	
CC(C)C[C@H](NC(=O)OCC1c2ccccc2-c2ccccc21)C(=O)N[C@@H](CCCNC(=N)N)C(=O)c1nc2ccccc2s1 [Compound 7185-11, Fmoc-LR-kbt]	450 nM	995 nM	410 nM	
